Assay [1] addresses T1, Histone-lysine N-methyltransferase EHMT1 (Homo sapiens) (UniProt Q9H9B1).
T1 sequence (whole entry): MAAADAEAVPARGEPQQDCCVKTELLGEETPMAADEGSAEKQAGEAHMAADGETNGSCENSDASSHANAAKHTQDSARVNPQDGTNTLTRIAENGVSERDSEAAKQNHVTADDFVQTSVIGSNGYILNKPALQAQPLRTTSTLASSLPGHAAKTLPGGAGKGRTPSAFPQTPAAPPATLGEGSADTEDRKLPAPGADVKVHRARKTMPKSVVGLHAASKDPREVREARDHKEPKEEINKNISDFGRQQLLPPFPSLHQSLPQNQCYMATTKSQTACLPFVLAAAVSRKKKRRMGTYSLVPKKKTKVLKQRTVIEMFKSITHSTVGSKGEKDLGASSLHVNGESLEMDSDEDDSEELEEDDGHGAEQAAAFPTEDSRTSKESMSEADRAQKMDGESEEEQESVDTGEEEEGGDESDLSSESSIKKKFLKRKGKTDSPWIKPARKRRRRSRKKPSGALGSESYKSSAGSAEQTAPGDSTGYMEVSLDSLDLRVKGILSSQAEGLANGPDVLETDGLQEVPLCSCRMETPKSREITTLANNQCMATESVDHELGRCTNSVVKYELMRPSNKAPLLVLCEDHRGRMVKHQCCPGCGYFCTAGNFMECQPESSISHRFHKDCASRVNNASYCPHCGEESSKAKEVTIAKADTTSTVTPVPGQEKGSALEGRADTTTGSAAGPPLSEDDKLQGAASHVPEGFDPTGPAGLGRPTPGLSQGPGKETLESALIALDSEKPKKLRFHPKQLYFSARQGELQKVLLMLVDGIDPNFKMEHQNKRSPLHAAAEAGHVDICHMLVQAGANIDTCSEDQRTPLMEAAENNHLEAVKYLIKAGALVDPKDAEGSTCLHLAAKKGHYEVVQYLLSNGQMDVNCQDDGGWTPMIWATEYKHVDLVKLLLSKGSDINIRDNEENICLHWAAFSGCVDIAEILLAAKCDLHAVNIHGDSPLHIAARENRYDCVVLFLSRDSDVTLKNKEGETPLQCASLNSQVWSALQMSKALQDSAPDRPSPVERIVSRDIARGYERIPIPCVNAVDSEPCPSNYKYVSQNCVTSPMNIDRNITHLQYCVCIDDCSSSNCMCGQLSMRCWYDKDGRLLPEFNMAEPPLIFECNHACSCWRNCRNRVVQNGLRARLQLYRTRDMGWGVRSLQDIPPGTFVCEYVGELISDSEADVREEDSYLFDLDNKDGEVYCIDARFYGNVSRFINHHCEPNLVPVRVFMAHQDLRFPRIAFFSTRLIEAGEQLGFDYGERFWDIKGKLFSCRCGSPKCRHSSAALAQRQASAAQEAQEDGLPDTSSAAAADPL
The assay is described as follows: Inhibition of wild type recombinant human histone lysine methyltransferase GLP (951 to 1235 residues) expressed in Escherichia coli Rosetta BL21 DE3 PlysS at 100 uM using ARTKQTARKSTGGKA as substrate preincubated for 5 mins followed by substrate/SAM addition measured after 60 mins by MALDI-TOF MS analysis.

Assay [2] has as its target T2, Histone-lysine N-methyltransferase EHMT2 (Homo sapiens) (UniProt Q96KQ7).
T2 sequence (whole entry): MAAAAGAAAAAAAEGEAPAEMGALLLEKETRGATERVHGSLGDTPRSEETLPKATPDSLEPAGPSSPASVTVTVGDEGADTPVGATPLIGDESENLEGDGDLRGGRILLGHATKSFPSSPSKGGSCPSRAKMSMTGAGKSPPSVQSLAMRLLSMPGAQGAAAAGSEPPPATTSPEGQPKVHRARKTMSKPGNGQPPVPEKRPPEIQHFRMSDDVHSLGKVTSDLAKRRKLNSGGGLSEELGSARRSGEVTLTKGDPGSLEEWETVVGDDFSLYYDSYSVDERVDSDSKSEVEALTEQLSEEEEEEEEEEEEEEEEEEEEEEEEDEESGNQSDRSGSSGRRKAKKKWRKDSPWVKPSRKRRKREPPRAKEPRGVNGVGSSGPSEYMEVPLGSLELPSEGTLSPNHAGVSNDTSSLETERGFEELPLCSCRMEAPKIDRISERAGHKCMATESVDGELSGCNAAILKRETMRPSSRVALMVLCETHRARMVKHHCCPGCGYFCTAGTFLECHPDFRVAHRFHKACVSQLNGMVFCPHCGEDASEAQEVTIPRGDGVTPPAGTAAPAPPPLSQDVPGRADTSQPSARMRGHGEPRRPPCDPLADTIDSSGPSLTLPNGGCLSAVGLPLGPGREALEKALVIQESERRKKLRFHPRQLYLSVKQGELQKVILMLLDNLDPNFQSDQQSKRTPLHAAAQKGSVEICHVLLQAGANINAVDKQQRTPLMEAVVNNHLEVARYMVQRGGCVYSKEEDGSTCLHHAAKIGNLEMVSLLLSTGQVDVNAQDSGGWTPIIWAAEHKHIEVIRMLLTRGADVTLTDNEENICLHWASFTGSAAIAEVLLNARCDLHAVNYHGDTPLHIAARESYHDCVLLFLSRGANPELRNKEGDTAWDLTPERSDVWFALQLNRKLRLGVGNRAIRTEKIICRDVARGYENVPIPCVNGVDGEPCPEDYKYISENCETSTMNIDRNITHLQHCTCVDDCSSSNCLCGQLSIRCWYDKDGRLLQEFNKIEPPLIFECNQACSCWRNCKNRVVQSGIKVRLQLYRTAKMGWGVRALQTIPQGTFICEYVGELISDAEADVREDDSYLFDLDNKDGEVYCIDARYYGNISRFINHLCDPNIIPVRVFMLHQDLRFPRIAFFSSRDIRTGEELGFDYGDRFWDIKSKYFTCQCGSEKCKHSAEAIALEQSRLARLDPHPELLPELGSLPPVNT
The assay is described as follows: Inhibition of wild type recombinant human histone lysine methyltransferase G9a (913 to 1193 residues) expressed in Escherichia coli Rosetta BL21 DE3 PlysS at 100 uM using ARTKQTARKSTGGKA as substrate preincubated for 5 mins followed by substrate/SAM addition measured after 60 mins by MALDI-TOF MS analysis.

For assay [3], the target named is T1, Histone-lysine N-methyltransferase EHMT1 (Homo sapiens). The assay is described as follows: Inhibition of wild type recombinant human histone lysine methyltransferase GLP (951 to 1235 residues) expressed in Escherichia coli Rosetta BL21 DE3 PlysS at 10 uM using ARTKQTARKSTGGKA as substrate preincubated for 5 mins followed by substrate/SAM addition measured after 60 mins by MALDI-TOF MS analysis.

The target of assay [4] is T3, Histone-lysine N-methyltransferase EHMT1 (Homo sapiens, UniProt Q9H9B1).
T3 sequence (Q9H9B1 whole entry): T1 sequence (whole entry)
The assay is described as follows: Inhibition of wild type recombinant human histone lysine methyltransferase GLP (951 to 1235 residues) expressed in Escherichia coli Rosetta BL21 DE3 PlysS using ARTKQTARKSTGGKA as substrate preincubated for 5 mins followed by substrate/SAM addition measured after 60 mins by MALDI-TOF MS analysis.

Assay [5] concerns the target T2, Histone-lysine N-methyltransferase EHMT2 (Homo sapiens). The assay can be described thus: Inhibition of wild type recombinant human histone lysine methyltransferase G9a (913 to 1193 residues) expressed in Escherichia coli Rosetta BL21 DE3 PlysS at 10 uM using ARTKQTARKSTGGKA as substrate preincubated for 5 mins followed by substrate/SAM addition measured after 60 mins by MALDI-TOF MS analysis.

The target of assay [6] is T1, Histone-lysine N-methyltransferase EHMT1 (Homo sapiens). The assay can be described thus: Inhibition of wild type recombinant human histone lysine methyltransferase GLP (951 to 1235 residues) expressed in Escherichia coli Rosetta BL21 DE3 PlysS assessed as zinc ions ejection from Cys4-Zn finger at 100 uM by FluoZin-3 based fluorescence assay.
Assay [7] concerns the target T4, Histone-lysine N-methyltransferase EHMT2 (Homo sapiens, UniProt Q96KQ7).
T4 sequence (Q96KQ7 whole entry): T2 sequence (whole entry)
The assay can be described thus: Inhibition of wild type recombinant human histone lysine methyltransferase G9a (913 to 1193 residues) expressed in Escherichia coli Rosetta BL21 DE3 PlysS using ARTKQTARKSTGGKA as substrate preincubated for 5 mins followed by substrate/SAM addition measured after 60 mins by MALDI-TOF MS analysis.

In assay [8] the target is T2, Histone-lysine N-methyltransferase EHMT2 (Homo sapiens). The assay is described as follows: Inhibition of wild type recombinant human histone lysine methyltransferase G9a (913 to 1193 residues) expressed in Escherichia coli Rosetta BL21 DE3 PlysS assessed as zinc ions ejection from Cys4-Zn finger at 100 uM by FluoZin-3 based fluorescence assay.

Inhibition and IC50 data for four compounds are collected here from ChEMBL document CHEMBL4184305, “Inhibition of histone lysine methyltransferases G9a and GLP by ejection of structural Zn(II)” (Bioorg Med Chem Lett, 2018).

The structures appear in SMILES notation. pIC50: −log10 of the molar value. The source made the active and inactive calls. The calls are words filed in the database; no cut-off is given here.

With `NC(=O)/N=N/C(N)=O` [E927A], the inhibition in assay [1] and in assay [2] was greater than 50% throughout. Further, the inhibition entry in assay [3] and in assay [5] was “inactive” each time. The pIC50 in assay [4] was 5.77; in assay [7] it was 6.30. The inhibition entry in assay [6] and in assay [8] was “Active” throughout.

Take `O=C1C=CC(=O)c2ccccc21` [NAPHTHOQUINONE]: the inhibition in assay [1] and in assay [2] was greater than 50% in each case. The inhibition entry in assay [3] and in assay [5] was “inactive” each time. Further, the values for the pIC50 in assay [4] and in assay [7] were 4.85 and 5.70, respectively. Besides, the inhibition entry in assay [6] and in assay [8] was “Active” in each case.

As to `O=[Se](=O)(O)O` [SODIUM SELENATE], the inhibition in assay [1] and in assay [2] was 10% each time. For the same compound, the inhibition entry in assay [3] and in assay [5] was “inactive” in each case. Besides, the pIC50 in assay [4] and in assay [7] was less than 4.00 in each case. For the same compound, the inhibition entry in assay [6] and in assay [8] was “Active” each time.

As for `CN(C)C(=S)SSC(=S)N(C)C` [THIRAM], the inhibition in assay [1] and in assay [2] was greater than 50% each time. For the same compound, the inhibition entry in assay [3] and in assay [5] was “inactive” throughout. For the same compound, the pIC50 in assay [4] was 5.96; in assay [7] it was 6.26. Moreover, the inhibition result in assay [6] and in assay [8] was “Active” in each case.

One may read the inhibition as how much of the control response was suppressed. By pIC50 is commonly meant the IC50 on a negative log10 scale, so that one unit is a factor of ten.
